The text below walks through data of ChEMBL document CHEMBL1201862, “PubChem BioAssay data set” (2004).

Active and inactive are the calls of the source.

What is called EC50 is the concentration needed to bring the measured effect to its halfway point. As usually defined, the IC50 is the concentration at which inhibition is half-maximal. What is called AC50 is the midpoint of the concentration-response curve, whichever way the signal moves. What is called CC50 is the concentration giving 50% cytotoxicity.

Assay [1] has as its system HEK293. As to the kind of experiment: NOD1 signaling inhibitors, primary screen, cell-based, luminescence, uHTS (AID 1578). In kind it is functional. As to conditions: Homo sapiens.
Assay [2] concerns HEK293. Put plainly: cells. To be noted: Homo sapiens. Type of assay: functional, cell-based.
The target of assay [3] is T1, Heat shock factor protein 1 (Mus musculus, UniProt P38532).
T1 sequence (P38532 whole entry): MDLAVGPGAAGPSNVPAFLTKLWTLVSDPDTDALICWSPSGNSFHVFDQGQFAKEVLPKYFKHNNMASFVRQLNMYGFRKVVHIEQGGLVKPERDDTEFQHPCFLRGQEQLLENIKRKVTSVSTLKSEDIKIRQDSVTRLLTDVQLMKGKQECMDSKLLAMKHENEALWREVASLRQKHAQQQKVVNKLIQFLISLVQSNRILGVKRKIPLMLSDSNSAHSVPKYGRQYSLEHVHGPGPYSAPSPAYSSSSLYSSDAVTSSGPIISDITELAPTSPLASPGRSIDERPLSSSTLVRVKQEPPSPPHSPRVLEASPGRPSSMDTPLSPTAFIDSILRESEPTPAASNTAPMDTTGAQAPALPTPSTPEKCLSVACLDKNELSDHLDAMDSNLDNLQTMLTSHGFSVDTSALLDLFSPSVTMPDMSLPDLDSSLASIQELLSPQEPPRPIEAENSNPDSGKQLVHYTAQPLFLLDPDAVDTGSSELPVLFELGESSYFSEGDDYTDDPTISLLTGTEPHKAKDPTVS
Put plainly: inhibition of MG132-induced HSE-luciferase signal, confirmation, cell-based, NIH3T3, luminescence, dose retest (AID 2382).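 Also: NIH3T3 fibroblasts with HSF1-driven luciferase reporter stressed by proteasome inhibitor MG132; luminescence from HSF1-driven luciferase expression after 8 hours of MG132 stress.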 In kind it is functional.

Assay [4] concerns HEK293. Put plainly: cells. In kind it is functional, cell-based. To be noted: Homo sapiens. The source holds these as a separate data set.
The target in assay [5] is Nucleotide-binding oligomerization domain-containing protein 2 (Homo sapiens, UniProt Q9HC29). As to the kind of experiment: NOD2 signaling inhibitors, cell-based, luminescence, uHTS, HEK293 (AID 1566). In kind it is functional.
Assay [6] has as its system HEK293. As to the kind of experiment: NOD2 signaling inhibitors in MDP-stimulated cells, cell-based, uHTS, luminescence (AID 2001). In kind it is functional. To be noted: Homo sapiens.
Assay [7] deals with HEK293. Put plainly: cells. In kind it is functional, cell-based. To be noted: Homo sapiens. The source holds these as a separate data set.
For assay [8], the target named is T2, Microphthalmia-associated transcription factor (Homo sapiens, UniProt O75030).
T2 sequence (O75030 whole entry): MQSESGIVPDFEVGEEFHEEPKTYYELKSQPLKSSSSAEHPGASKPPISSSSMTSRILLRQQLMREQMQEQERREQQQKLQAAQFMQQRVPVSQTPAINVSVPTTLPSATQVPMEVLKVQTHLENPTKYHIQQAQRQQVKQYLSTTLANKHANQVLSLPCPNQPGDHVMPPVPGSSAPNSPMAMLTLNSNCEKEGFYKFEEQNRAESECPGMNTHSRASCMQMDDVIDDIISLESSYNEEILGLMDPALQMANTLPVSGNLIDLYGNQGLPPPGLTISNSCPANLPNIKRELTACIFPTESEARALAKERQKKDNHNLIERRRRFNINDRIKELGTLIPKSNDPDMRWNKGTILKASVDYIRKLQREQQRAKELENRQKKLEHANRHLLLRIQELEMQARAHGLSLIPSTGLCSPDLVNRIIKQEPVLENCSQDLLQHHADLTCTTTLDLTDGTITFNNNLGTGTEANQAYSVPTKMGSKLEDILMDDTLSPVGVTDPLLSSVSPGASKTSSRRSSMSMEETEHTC
Put plainly: TRPM1 promoter luciferase signal decrease, dose response, MITF inhibitor project, cell-based, SK-MEL-5, cherry-picked, set 3 (AID 493073).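 Also: SK-MEL-5 melanoma cells with luciferase driven by the MITF target TRPM1 promoter.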 Type of assay: functional.

For assay [9], the target named is Glucose-6-phosphate 1-dehydrogenase (Homo sapiens, UniProt P11413). As to the kind of experiment: human G6PD enzyme inhibitors, dose response, selectivity assay for P. falciparum G6PD inhibitor project, biochemical, fluorescence (AID 504792). In kind it is functional.
The subject of assay [10] is Vero. As to the kind of experiment: Vero cell cytotoxicity, cytotoxicity control for flavivirus capping enzyme inhibitors (AID 588742). In kind it is functional. To be noted: Chlorocebus sabaeus.
The target of assay [11] is Genome polyprotein (dengue virus type 2, UniProt P29990). Put plainly: Dengue-2 NS5 methyltransferase inhibitors, primary screen, biochemical, confirmation dose response (AID 588689). Type of assay: functional.
In assay [12] the target is Trypsin (Sus scrofa, UniProt P00761). As to the kind of experiment: porcine trypsin inhibitors, dose response, selectivity assay for Rce1 protease inhibitor project, biochemical, quenched peptide fluorescence, cherry-pick (AID 488789).
The target of assay [13] is CAAX prenyl protease 2 (Saccharomyces cerevisiae S288c, UniProt Q03530). In kind it is biochemical.
The target of assay [14] is CAAX prenyl protease 2 (Homo sapiens, UniProt Q9Y256). As to the kind of experiment: human Rce1 protease inhibitors, dose response, biochemical, yeast membranes, quenched-peptide fluorescence, cherry-pick (AID 588849).
The target in assay [15] is T3, Serine/threonine-protein phosphatase (Candida dubliniensis (strain CD36 / CBS 7987 / NCPF 3949 / NRRLY-17841) (Yeast), UniProt B9W6M3).
T3 sequence (B9W6M3 whole entry): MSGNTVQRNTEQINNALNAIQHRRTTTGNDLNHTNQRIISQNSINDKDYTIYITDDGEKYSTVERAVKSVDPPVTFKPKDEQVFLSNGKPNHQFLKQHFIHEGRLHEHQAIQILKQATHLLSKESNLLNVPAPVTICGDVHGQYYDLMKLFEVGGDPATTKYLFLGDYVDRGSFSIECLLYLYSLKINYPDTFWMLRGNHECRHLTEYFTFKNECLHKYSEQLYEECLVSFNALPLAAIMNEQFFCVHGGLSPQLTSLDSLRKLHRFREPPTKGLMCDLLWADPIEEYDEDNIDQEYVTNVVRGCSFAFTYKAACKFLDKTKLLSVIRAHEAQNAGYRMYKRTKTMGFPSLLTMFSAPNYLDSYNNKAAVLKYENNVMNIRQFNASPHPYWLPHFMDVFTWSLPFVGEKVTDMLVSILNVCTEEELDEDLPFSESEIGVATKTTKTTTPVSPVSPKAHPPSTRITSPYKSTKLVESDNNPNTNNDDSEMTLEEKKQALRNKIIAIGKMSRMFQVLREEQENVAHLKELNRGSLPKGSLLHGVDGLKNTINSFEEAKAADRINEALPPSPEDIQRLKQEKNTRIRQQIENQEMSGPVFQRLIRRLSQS
As to the kind of experiment: Fluorescence Cell-Based Secondary Assay to Identify Inhibitors of Calcineurin. [Related pubchem assays (depositor defined):AID1979, AID2007]. Type of assay: functional.

Assay [16] addresses Dual specificity protein kinase CLK1 (Homo sapiens, UniProt P49759). As to the kind of experiment: CLK1 kinase inhibitors, off-target check, dose response, selectivity assay for Dyrk1A inhibitor project, biochemical, cherry-picked samples (AID 588811).
Assay [17] has as its target FAD-linked sulfhydryl oxidase ALR (Homo sapiens, UniProt P55789). Put plainly: inhibitors of human ALR sulfhydryl oxidase, dose response, biochemical, H2O2 detection, luminescence, cherry-pick (AID 493248).
Assay [18] is described as follows: growth induction of Burl-1 ts yeast mutant, dose response, counter-screen for SUMOylation pathway inhibitor project, whole organism, S. cerevisiae, luminescence (AID 463199). Type of assay: functional. For orientation: Counterscreens check selectivity or assay interference.

Chain of CAAX prenyl protease 2 (Homo sapiens, UniProt Q9Y256) (Q9Y256 whole entry): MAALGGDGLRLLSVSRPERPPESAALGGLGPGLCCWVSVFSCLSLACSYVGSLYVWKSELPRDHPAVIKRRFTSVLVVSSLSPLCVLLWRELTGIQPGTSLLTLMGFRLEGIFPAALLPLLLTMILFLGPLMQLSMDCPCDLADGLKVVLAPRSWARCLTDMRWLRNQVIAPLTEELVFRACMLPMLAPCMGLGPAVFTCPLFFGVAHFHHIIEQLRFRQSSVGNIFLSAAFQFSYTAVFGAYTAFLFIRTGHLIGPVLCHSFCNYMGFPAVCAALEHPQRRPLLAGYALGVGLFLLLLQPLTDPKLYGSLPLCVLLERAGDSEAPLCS
Chain of FAD-linked sulfhydryl oxidase ALR (P55789 whole entry): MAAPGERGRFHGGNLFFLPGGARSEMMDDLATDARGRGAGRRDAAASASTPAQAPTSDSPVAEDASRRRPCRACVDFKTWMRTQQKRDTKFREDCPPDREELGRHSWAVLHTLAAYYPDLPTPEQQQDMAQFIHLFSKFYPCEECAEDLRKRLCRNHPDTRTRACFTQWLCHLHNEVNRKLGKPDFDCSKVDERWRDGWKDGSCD
Chain of Trypsin (P00761 whole entry): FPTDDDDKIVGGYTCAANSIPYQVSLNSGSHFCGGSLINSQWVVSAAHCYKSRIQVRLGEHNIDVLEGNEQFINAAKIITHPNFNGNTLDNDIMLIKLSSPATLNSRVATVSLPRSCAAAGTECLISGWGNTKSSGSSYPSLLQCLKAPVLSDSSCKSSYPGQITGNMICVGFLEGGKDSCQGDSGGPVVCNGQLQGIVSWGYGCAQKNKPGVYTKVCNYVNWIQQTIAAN
Chain of CAAX prenyl protease 2 (Saccharomyces cerevisiae S288c, UniProt Q03530) (Q03530 whole entry): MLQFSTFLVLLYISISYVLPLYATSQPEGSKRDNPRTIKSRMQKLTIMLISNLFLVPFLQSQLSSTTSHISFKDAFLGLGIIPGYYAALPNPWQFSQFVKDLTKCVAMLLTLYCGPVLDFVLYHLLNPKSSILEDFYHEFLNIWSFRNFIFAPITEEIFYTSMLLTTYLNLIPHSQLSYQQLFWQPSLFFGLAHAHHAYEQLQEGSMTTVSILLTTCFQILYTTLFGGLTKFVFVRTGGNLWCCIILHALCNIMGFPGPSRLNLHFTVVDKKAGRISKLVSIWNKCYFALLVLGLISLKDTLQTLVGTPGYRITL
Chain of Glucose-6-phosphate 1-dehydrogenase (P11413 whole entry): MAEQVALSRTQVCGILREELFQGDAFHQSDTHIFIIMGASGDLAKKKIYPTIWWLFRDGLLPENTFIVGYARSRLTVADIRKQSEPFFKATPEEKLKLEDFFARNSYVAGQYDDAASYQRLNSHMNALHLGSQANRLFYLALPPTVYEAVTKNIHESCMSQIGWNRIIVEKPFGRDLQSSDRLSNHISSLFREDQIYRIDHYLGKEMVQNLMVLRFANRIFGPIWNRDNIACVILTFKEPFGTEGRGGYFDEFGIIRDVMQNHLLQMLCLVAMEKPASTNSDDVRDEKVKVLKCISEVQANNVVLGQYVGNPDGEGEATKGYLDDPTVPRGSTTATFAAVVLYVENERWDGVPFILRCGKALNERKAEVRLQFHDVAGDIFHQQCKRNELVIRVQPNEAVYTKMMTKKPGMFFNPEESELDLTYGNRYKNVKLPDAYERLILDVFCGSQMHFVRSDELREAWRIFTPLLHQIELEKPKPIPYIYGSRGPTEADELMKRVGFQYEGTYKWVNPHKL
Chain of Nucleotide-binding oligomerization domain-containing protein 2 (Q9HC29 whole entry, the tested form may be a part): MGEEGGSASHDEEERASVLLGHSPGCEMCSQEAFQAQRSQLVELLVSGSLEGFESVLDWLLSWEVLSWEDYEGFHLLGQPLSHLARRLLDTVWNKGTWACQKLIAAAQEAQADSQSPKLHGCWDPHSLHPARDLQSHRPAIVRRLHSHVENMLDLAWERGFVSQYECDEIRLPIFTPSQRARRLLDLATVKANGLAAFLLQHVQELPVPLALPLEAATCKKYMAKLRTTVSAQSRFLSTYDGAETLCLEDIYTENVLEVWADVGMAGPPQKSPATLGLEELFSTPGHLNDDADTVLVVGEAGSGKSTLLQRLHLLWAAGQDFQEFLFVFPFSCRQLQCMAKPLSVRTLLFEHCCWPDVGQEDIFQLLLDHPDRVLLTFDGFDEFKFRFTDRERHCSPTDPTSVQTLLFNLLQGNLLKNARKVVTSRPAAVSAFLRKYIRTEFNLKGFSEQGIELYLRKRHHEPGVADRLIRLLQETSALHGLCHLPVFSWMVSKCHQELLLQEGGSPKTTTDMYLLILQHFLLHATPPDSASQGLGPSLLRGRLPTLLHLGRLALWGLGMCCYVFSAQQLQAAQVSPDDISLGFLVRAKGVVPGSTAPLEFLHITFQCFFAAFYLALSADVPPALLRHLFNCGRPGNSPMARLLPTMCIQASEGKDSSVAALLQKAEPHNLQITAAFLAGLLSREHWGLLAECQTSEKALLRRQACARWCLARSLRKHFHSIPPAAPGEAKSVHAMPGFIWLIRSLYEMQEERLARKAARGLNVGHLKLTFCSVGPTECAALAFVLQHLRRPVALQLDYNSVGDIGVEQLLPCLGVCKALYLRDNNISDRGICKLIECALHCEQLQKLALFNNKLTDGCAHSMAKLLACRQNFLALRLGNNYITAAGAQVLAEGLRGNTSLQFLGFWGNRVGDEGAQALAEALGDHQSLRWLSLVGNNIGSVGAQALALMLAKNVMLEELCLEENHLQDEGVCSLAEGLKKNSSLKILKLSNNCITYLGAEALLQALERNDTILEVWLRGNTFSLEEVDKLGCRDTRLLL
Chain of Genome polyprotein (P29990 2492-3391 limits assumed): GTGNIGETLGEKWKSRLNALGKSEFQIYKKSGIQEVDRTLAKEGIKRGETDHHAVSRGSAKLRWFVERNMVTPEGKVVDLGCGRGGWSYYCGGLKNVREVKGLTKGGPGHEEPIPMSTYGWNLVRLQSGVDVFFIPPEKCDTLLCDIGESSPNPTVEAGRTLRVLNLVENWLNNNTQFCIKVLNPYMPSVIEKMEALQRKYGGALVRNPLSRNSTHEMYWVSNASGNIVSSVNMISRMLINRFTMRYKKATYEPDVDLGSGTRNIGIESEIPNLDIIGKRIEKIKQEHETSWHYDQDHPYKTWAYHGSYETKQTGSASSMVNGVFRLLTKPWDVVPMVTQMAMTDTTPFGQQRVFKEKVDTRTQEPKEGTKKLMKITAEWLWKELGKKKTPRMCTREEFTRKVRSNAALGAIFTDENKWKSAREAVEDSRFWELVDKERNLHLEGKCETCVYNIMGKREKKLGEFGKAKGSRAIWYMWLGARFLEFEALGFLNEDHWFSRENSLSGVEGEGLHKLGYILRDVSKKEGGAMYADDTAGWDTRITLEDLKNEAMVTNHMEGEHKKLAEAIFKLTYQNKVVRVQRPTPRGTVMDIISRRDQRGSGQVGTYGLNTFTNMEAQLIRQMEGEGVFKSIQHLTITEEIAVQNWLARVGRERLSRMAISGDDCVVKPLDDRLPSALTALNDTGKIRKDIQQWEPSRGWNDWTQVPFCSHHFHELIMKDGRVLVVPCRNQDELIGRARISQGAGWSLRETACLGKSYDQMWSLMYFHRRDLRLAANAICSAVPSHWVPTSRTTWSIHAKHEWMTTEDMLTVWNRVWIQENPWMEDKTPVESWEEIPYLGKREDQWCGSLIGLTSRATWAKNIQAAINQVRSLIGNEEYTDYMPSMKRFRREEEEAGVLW
Chain of Dual specificity protein kinase CLK1 (P49759 whole entry): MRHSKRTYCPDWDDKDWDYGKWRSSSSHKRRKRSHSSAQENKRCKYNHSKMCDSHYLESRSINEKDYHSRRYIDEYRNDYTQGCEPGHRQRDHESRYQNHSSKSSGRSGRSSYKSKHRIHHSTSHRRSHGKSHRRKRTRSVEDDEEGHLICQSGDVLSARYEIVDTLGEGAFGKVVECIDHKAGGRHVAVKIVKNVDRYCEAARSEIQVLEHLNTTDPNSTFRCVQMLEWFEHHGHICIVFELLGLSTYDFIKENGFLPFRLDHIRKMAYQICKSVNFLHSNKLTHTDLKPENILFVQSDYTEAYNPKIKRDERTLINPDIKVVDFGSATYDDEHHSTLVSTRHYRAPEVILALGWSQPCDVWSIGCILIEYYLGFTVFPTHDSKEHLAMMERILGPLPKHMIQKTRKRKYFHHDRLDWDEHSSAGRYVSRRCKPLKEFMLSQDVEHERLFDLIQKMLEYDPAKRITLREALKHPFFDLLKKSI

With `O=C(CCl)Nc1ccc(Sc2ccc(NC(=O)CCl)cc2)cc1`, the EC50 was 10.1 µM (active) in assay [1], 3.68 µM (active) in assay [3] and 18.8 µM (active) in [5]. For the same molecule, the IC50 in assay [2] was 1.62 µM (active); in assay [4] it was 10.2 µM (active); in assay [6] it was 2.71 µM (active); in assay [7], > 20 µM (inactive). Further, the AC50 in assay [8] was 5.98 µM (active).
Turning to `COc1cc(CN2CCCC(C(=O)c3ccc4c5c(cccc35)CC4)C2)cc(OC)c1O` (stereo not drawn), the results for the IC50 in [9] and in [11] were 24.3 µM (inactive) and 97.7 µM (active), respectively. Further, in assay [10], the CC50 is > 40 µM (active).
For `COC(=O)C1=CNC=C(C(=O)OC)C1c1cccc2ccccc12`, the values for the AC50 in assay [12], in assay [13] and in assay [14] were 80.3 µM (active), 26.9 µM (active) and 7.98 µM (active), respectively.
In the case of `O=C1/C(=C\c2ccccc2)CCc2c1[nH]c1ccccc21`, the EC50 in assay [15] was > 285 µM (inactive).
For `CCN(Cc1cccs1)c1ncnc2ccc(-c3ccc4c(c3)OCO4)cc12`, the AC50 in assay [16] is < 0.00195 µM (active).
As for `O=C(O)CCc1ccc(-c2cccs2)n1NC(=O)c1cccs1`, the AC50 in assay [17] was 1.55 µM (active); in assay [18], 183 µM (active).
